For data set [1], the system named is Rat2 fibroblasts stably transformed with v-Src/Hu c-Src fusion gene. Put plainly: Anchorage independent Src-transformed fibroblast proliferation assay. Type of data set: cell-based, rat. On the procedure:
Anchorage Independent Src-Transformed Fibroblast Proliferation Assay Rat2 fibroblasts stably transformed with a plasmid containing a CMV promotor controlled v-Src/Hu c-Src fusion gene in which the catalytic domain of human c-Src was inserted in place of the v-Src catalytic domain in the v-Src gene are used for the measurement of src dependent suspension growth. […] Multiple entries for a given compound indicate that it was tested multiple times.

Data set [2] addresses T1, Rat2 fibroblasts stably transformed with v-Src/Hu Lck fusion gene (Homo sapiens, UniProt P06239, cells depend on it, form not given).
T1 construct: Candidates are e.g. Schmidt-Ruppin A (P00524) or Prague C (P00526); The human Lck catalytic domain stands in place of the v-Src catalytic domain
Put plainly: Anchorage independent Lck-transformed fibroblast proliferation assay. Type of data set: cell-based, rat. On the procedure: Anchorage Independent Lck-Transformed Fibroblast Proliferation Assay
Rat2 fibroblasts stably transformed with a plasmid containing a CMV promotor controlled v-Src/Hu Lck fusion gene in which the catalytic domain of human Lck was inserted in place of the v-Src catalytic domain in the v-Src gene are used for the measurement of src dependent suspension growth. Ultra-low cluster plates (Costar # 3474) are seeded with 10,000 cells per well on Day 1. Compound is added in serial two-fold dilutions from 10 micromolar to 0.009 micromolar on Day 2 and MTS reagent (Promega) is added on Day 5 (100 microliters of MTS/medium mix+100 microliters of medium already on the cells and the absorbance is measured at 490 nm. The results are analyzed as follows to yield an IC50 for proliferation (micromolar units) as follow: % inhibition=(Abs490 nm sample−blank)/(Abs490 nm no cmpd control−blank)×100%. The results obtained for representative compounds of this invention are listed in Table 2. Multiple entries for a given compound indicate that it was tested multiple times.

The mark [3] stands for this setting: Table 3, read-out: Lck Cells IC50.
Setting [4] is: Table 2, suspension growth, MTS readout Day 5, read-out: Lck cells IC50.
Setting [5] is: Rattus norvegicus, Rat2, Table 3, read-out: Src Cells IC50 μM or % inhib at 10 μM (IC50 values).
Where [6] appears, read: Table 3, read-out: Src Cells IC50 μM or % inhib at 10 μM (IC50 values).
[7] abbreviates: Rattus norvegicus, Rat2, 120 h, Table 1, suspension growth, MTS readout Day 5, read-out: Src cells IC50.

The source of these data is US7276519B2, “Thieno[3,2-b]pyridine-6-carbonitriles and thieno[2,3-b]pyridine-5-carbonitriles as protein kinase inhibitors” (Wyeth, priority 2002, dated 2007).

Several values for one entry are separate records, joined by “and”; a condition that tells them apart may be missing. Equal entries are not always repeated. Where two headings read alike, the source gives them in different places. Some results are limits rather than exact numbers.

T1 sequence (P06239 whole entry, change not shown, the tested form may be a part): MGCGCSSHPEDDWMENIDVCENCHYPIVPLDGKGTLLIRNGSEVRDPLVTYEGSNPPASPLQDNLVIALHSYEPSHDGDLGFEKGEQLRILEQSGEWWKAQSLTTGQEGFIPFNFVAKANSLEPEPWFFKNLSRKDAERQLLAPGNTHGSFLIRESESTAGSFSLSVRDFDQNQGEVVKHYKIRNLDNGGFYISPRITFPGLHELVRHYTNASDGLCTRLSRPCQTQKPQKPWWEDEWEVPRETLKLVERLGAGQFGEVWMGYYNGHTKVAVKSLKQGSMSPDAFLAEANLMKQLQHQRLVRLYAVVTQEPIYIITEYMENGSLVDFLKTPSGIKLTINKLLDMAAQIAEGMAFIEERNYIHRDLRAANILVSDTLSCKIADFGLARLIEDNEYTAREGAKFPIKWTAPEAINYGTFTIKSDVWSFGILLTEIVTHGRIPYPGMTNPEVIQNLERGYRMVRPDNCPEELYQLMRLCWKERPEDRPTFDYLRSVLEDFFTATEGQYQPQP

For `COc1cc(Nc2c(C#N)cnc3cc(C#Cc4cncn4C)sc23)c(Cl)cc1Cl` [Example 127, 7-[(2,4-dichloro-5-methoxyphenyl)amino]-2-[(1-methyl-1H-imidazol-5-yl)ethynyl]thieno[3,2-b]pyridine-6-carbonitrile], the “Src Cells IC50 μM or % inhib at 10 μM (% values)” value in data set [1] (Table 3, at 10 μM) is 0% and 9%. Further, in data set [2] (setting [3]), the GI50 is above 10000 nM.

The molecule `COc1cc(Nc2c(C#N)cnc3cc(-c4cccc(CN5CCN(C)CC5)c4)sc23)c(Cl)cc1Cl` [Example 74, 7-[(2,4-dichloro-5-methoxyphenyl)amino]-2-{3-[(4-methylpiperazin-1-yl)methyl]phenyl}thieno[3,2-b]pyridine-6-carbonitrile] yielded a melting point of 178 to 180 °C. For the same molecule, in data set [2] (setting [3]), the GI50 was 600 nM and 510 nM.

On to `COc1cc(Nc2c(C#N)cnc3cc(-c4ccc(CN(C)C)cc4)sc23)c(Cl)cc1Cl` [Example 62, 7-[(2,4-Dichloro-5-methoxyphenyl)amino]-2-{4-[(dimethylamino)methyl]phenyl}thieno[3,2-b]pyridine-6-carbonitrile], for which the melting point was 224 to 225 °C. Also, in data set [2] (setting [4]), the GI50 was 79 nM.

Molecule `COc1cc(Nc2c(C#N)cnc3cc(-c4ccc(CN5CCN(c6ccccc6OC)CC5)cc4)sc23)c(Cl)cc1Cl` [Example 120, 7-[(2,4-dichloro-5-methoxyphenyl)amino]-2-(4-{[4-(2-methoxyphenyl)piperazin-1-yl]methyl}phenyl)thieno[3,2-b]pyridine-6-carbonitrile] registered a melting point of 176 to 179 °C. Moreover, the GI50 in data set [2] (setting [3]) is 8900 nM and > 10000 nM.

For the molecule `COc1cc(Nc2c(C#N)cnc3cc(-c4ccc(CNCCC(C)C)cc4)sc23)c(Cl)cc1Cl` [Example 121, 7-[(2,4-dichloro-5-methoxyphenyl)amino]-2-(4-{[(3-methylbutyl)amino]methyl}phenyl)thieno[3,2-b]pyridine-6-carbonitrile], the melting point lay within 195 to 197 °C. Moreover, the GI50 in data set [2] (setting [3]) is 525 nM and 576 nM and 951 nM.

Consider `COc1cc(Nc2c(C#N)cnc3cc(-c4csc(CN5CCN(C)CC5)c4)sc23)c(Cl)cc1Cl` [Example 38, 7-[(2,4-Dichloro-5-methoxyphenyl)amino]-2-{5-[(4-methylpiperazin-1-yl)methyl]thien-3-yl}thieno[3,2-b]pyridine-6-carbonitrile], for which the melting point fell in the range of 224 to 226 °C. The GI50 in data set [2] (setting [4]) is 170 nM and 180 nM and 130 nM.

On to `COc1cc(Nc2c(C#N)cnc3cc(C#Cc4cn[nH]c4)sc23)c(Cl)cc1Cl` [Example 101, 7-[(2,4-dichloro-5-methoxyphenyl)amino]-2-(1H-pyrazol-4-ylethynyl)thieno[3,2-b]pyridine-6-carbonitrile], for which the IC50 came out at 0.804 µM in data set [1] (setting [5]) and 0.81 µM in data set [1] (setting [6]). Moreover, the GI50 in data set [2] (setting [3]) is 938 nM and 804 nM.

On to `COc1cc(Nc2c(C#N)cnc3cc(-c4cc[nH]c4)sc23)c(Cl)cc1Cl` [Example 90, 7-[(2,4-dichloro-5-methoxyphenyl)amino]-2-(1H-pyrrol-3-yl)thieno[3,2-b]pyridine-′6-carbonitrile], for which the IC50 in data set [1] (setting [6]) was 2.6 µM and 3.1 µM. In data set [2] (setting [3]), the GI50 is 2700 nM and 2400 nM.

In turn, `COc1cc(Nc2c(C#N)cnc3cc(-c4ccc(C(=O)N(C)C)cc4)sc23)c(Cl)cc1Cl` [Example 136, 4-{6-cyano-7-[(2,4-dichloro-5-methoxyphenyl)amino]thieno[3,2-b]pyridin-2-yl}-N,N-dimethylbenzamide] yielded a melting point of 246 to 249 °C. In addition, the GI50 in data set [2] (setting [3]) is 463 nM and 331 nM and 341 nM.

As to `COc1cc(Nc2c(C#N)cnc3cc(-c4ccc(CN(C)CCCN(C)C)cc4)sc23)c(Cl)cc1Cl` [Example 85, 7-[(2,4-dichloro-5-methoxyphenyl)amino]-2-(4-{[[3-(dimethylamino)propyl](methyl)amino]methyl}phenyl)thieno[3,2-b]pyridine-6-carbonitrile], the IC50 in data set [1] (setting [5]) came to 3.3 µM; in data set [1] (setting [6]), 3.16 µM. Also, the GI50 in data set [2] (setting [3]) was determined as 500 nM.

As to `COc1cc(Nc2c(C#N)cnc3cc(C#Cc4cnn(CCN5CCOCC5)c4)sc23)c(Cl)cc1Cl` [Example 65, 7-[(2,4-Dichloro-5-methoxyphenyl)amino]-2-{[1-(2-morpholin-4-ylethyl)-1H-pyrazol-4-yl]ethynyl}thieno[3,2-b]pyridine-6-carbonitrile], the IC50 in data set [1] (setting [5]) stood at 0.7 µM. Further, the GI50 in data set [2] (setting [3]) was above 10000 nM.

As for `COc1cc(Nc2c(C#N)cnc3cc(-c4ccc(CN(C)C)cn4)sc23)c(Cl)cc1Cl` [Example 132, 7-[(2,4-dichloro-5-methoxyphenyl)amino]-2-{5-[(dimethylamino)methyl]pyridin-2-yl}thieno[3,2-b]pyridine-6-carbonitrile], the GI50 in data set [2] (setting [3]) is 112 nM and 96 nM.

For the molecule `COc1cc(Nc2c(C#N)cnc3cc(-c4cn[nH]c4)sc23)c(Cl)cc1Cl` [Example 129, 7-[(2,4-dichloro-5-methoxyphenyl)amino]-2-(1 H-pyrazol-4-yl)thieno[3,2-b]pyridine-6-carbonitrile], the IC50 stood at 3.23 µM in data set [1] (setting [5]) and 2.19 µM in data set [1] (setting [6]). Moreover, the GI50 in data set [2] (setting [3]) is 1460 nM and 1400 nM.

In the case of `COc1cc(Nc2c(C#N)cnc3cc(-c4ccc(C=O)o4)sc23)c(Cl)cc1Cl` [Example 67, 7-[(2,4-dichloro-5-methoxyphenyl)amino]-2-(5-formyl-2-furyl)thieno[3,2-b]pyridine-6-carbonitrile], in data set [1] (setting [5]), the IC50 worked out at 3.7 µM. Besides, the GI50 in data set [2] (setting [3]) was 1500 nM and 1700 nM.

Consider `COc1cc(Nc2c(C#N)cnc3cc(-c4ccn(CCN(C)C)c4)sc23)c(Cl)cc1Cl` [Example 125, 7-[(2,4-dichloro-5-methoxyphenyl)amino]-2-{1-[2-(dimethylamino)ethyl]-1H-pyrrol-3-yl}thieno[3,2-b]pyridine-6-carbonitrile], for which, in data set [1] (setting [5]), the IC50 is above 10 µM. In addition, the GI50 in data set [2] (setting [3]) is > 10000 nM and 5800 nM.

For the molecule `COc1cc(Nc2c(C#N)cnc3cc(-c4cnn(CCN5CCOCC5)c4)sc23)c(Cl)cc1Cl` [Example 131, 7-[(2,4-dichloro-5-methoxyphenyl)amino]-2-[1-(2-morpholin-4-ylethyl)-1H-pyrazol-4-yl]thieno[3,2-b]pyridine-6-carbonitrile], the inhibition at 10 µM in data set [1] (Rattus norvegicus, Rat2, Table 3, at 10 μM, read-out: Src Cells IC50 μM or % inhib at 10 μM (% values)) turned out to be 16%. Moreover, in data set [1] (Table 3, at 10 μM), the “Src Cells IC50 μM or % inhib at 10 μM (% values)” value is on record as 17%. For the same molecule, in data set [2] (setting [3]), the GI50 was above 10000 nM.

As for `COc1cc(Nc2c(C#N)cnc3cc(-c4ccc(CN5C[C@H](C)NC[C@H]5C)cc4)sc23)c(Cl)cc1Cl` [Example 114, 7-[(2,4-dichloro-5-methoxyphenyl)amino]-2-(4{[(2R,5S)-2,5-dimethylpiperazin-1-I]methyl}phenyl)thieno[3,2-b]pyridine-6-carbonitrile], in data set [2] (setting [3]), the GI50 was 156 nM and 174 nM.

Take `COc1cc(Nc2c(C#N)cnc3cc(I)sc23)cc(OC)c1OC` [Example 47, 2-Iodo-7-[(3,4,5-trimethoxyphenyl)amino]thieno[3,2-b]pyridine-6-carbonitrile]: the melting point lay within 254 to 256 °C. Moreover, the inhibition at 100 µM in data set [1] (Rattus norvegicus, Rat2, Table 1, at 100 μM, read-out: Src cells % inh at 100 μM) worked out at 74%.

Consider `N#Cc1cnc2ccsc2c1Oc1ccc(Cl)cc1Cl` [Example 11, 7-[(2,4-Dichlorophenoxy)]thieno[3,2-b]pyridine-6-carbonitrile], for which the melting point was 158 to 160 °C. Also, the IC50 in data set [1] (setting [7]) was determined as 23 µM.

Regarding `COc1cc(Nc2c(C#N)cnc3cc(C#Cc4cnn(CCO)c4)sc23)c(Cl)cc1Cl` [Example 130, 7-[(2,4-dichloro-5-methoxyphenyl)amino]-2-{[1-(2-hydroxyethyl)-1H-pyrazol-4-yl]ethynyl}thieno[3,2-b]pyridine-6-carbonitrile], the figures for the IC50 in data set [1] (setting [5]) and in data set [1] (setting [6]) were 5.59 µM and 3.2 µM, respectively. Besides, the GI50 in data set [2] (setting [3]) was 3640 nM and 4070 nM.

On to `COc1cc(Nc2c(C#N)cnc3cc(-c4cnc(C=O)n4C)sc23)c(Cl)cc1Cl` [Example 54, 7-[(2,4-Dichloro-5-methoxyphenyl)amino]-2-(2-formyl-1-methyl-1H-imidazol-5-yl)thieno[3,2-b]pyridine-6-carbonitrile], for which the melting point lay within 225 to 227 °C. In data set [1] (setting [7]), the IC50 was 1.51 µM. Moreover, the IC50 in data set [1] (Table 1, suspension growth, MTS readout Day 5, read-out: Src cells IC50) was 1.01 µM.

As for `COc1cc(Nc2c(C#N)cnc3cc(-c4ccc(C=O)s4)sc23)c(Cl)cc1Cl` [Example 79, 7-[(2,4-dichloro-5-methoxyphenyl)amino]-2-(5-formylthien-2-yl)thieno[3,2-b]pyridine-6-carbonitrile], the IC50 in data set [1] (setting [5]) stood at 2.4 µM; in data set [1] (setting [6]) it was 2.8 µM. In data set [2] (setting [3]), the GI50 is 1500 nM and 1600 nM.

In the case of “7-[(2,4-dichloro-5-methoxyphenyl)amino]-2-{4-[(4-pyrrolidin-1-ylpiperidin-1-yl)methyl]phenyl}thieno[3,2-b]pyridine-6-carbonitrile [Example 71]”, the IC50 in data set [1] (setting [6]) is 1.6 µM and 0.9 µM. In addition, in data set [2] (setting [3]), the GI50 was 200 nM and 110 nM.
